This is an account of results in patent US20230051797A1, “METHOD FOR RECOVERING EXTRACELLULAR VESICLE AND BLOOD COLLECTION VESSEL” (FUJIREBIO INC., priority 2019, published 2023).

The subject of series [1] is human whole blood. In words: Confirmation of presence and absence of hemolysis in whole blood with surfactant (Example 2). As to the method: A surfactant was added to human whole blood for confirmation of presence and absence of hemolysis. […] Octyltrimethylammonium bromide (C8TAB) and hexadecyltrimethylammonium chloride (C16TAC) were used as cationic surfactants. N-decanoyl sarcosine sodium (N-DSS (NDS)) and N-lauroyl sarcosine sodium hydrate (NLS) were used as anionic surfactants. As amphoteric surfactants, CHAPS and N-dodecyl-N,N-dimethyl-3-ammonio-l-propanesulfonate (C12APS) were used.
More specifically, 900 μL of whole blood obtained after blood collection was added to the 5 mL polypropylene test tube (manufactured by nunc) containing 100 μL of D-PBS (-) supplemented with the surfactant. The surfactant was added to achieve a final concentration of 0.5 W/V % after mixed with whole blood. After the addition of whole blood, the test tubes were inverted for mixing, and allowed to stand at room temperature for 30 minutes. After centrifugation (3000 rpm, 5 minutes), the supernatant was collected for visual check of the presence and absence of hemolysis.

The subject of series [2] is CD9, the surface marker protein of the extracellular vesicle (EV). In words: Recovery of EV from whole blood with chelating agent (CD9 measured in supernatant, Example 1). The arrangement: species or system human. The following applies: chelating agent final concentration 15 mM in whole blood.
Experimental: 20 μL of the sample for measurement and 50 μL of the anti-CD9 antibody solid-phased particle solution were dispensed into the reaction vessel and stirred. Then, the resulting solution was incubated at 37° C. for 8 minutes (primary reaction), and B/F separation and washing were carried out. 50 μL of the ALP-labeled antibody was dispensed into the reaction vessel, the resulting solution was stirred and then incubated at 37° C. for 8 minutes, and B/F separation and washing were carried out. Then, 200 μL of Lumipulse (registered trademark) substrate solution (Fujirebio Inc.) containing 3-(2′-spiroadamantane)-4-methoxy-4-(3″-phosphoryloxy)phenyl-1,2-dioxetane disodium salt (AMPPD) serving as a chemiluminescent substance was dispensed into the reaction chamber. The resulting solution was stirred and then incubated at 37° C. for 4 minutes for the measurement of luminescence intensity using luminometer. A count value was obtained as the measured value. The luminescence intensity was measured using a fully automated chemiluminescent enzyme immunoassay system (Lumipulse L2400 (Fujirebio Inc.)). […]
The chelating agent was added to human whole blood. After centrifugation, CD9 in the supernatant was measured. […]
The test system of series [3] is CD9, the surface marker protein of extracellular vesicle (EV). In words: Recovery of EV from whole blood supplemented with chelating agent and surfactant (CD9 in supernatant, Example 3). The arrangement: species or system human. The following applies: chelating agent 60 mM.
Experimental: To 0.01 g/mL of magnetic particles in 10 mM MES buffer (pH 5.0), 0.2 mg/mL of a mouse anti-CD9 monoclonal antibody (Fujirebio Inc.) that recognizes an extracellular vesicle (EV) surface marker CD9, was added. Then, the resulting solution was gently stirred at 25° C. for one hour for incubation. After the reaction, the magnetic particles were magnetically collected and washed with a washing solution (50 mM Tris buffer, 150 mM NaCl2, 2.0% BSA, pH 7.2) in order to obtain anti-CD9 antibody solid-phased particles. Each antibody solid-phased particle was suspended in a particle diluent (50 mM Tris buffer, 1 mM EDTA-2Na, 0.1% NaN3, 2.0% BSA, pH 7.2) in order to obtain each antibody solid-phased particle solution. […]
The chelating agent and the surfactant were added to human whole blood. CD9 was measured in the supernatant after centrifugation. […]
The test system is the same in series [4]. In words: Study of concentrations of chelating agent and surfactant (CD9 in supernatant, Example 4). Also on record: species or system human. The following applies: Tergitol 15-S-40 0%. Here is the method:
(§1) To 0.01 g/mL of magnetic particles in 10 mM MES buffer (pH 5.0), 0.2 mg/mL of a mouse anti-CD9 monoclonal antibody (Fujirebio Inc.) that recognizes an extracellular vesicle (EV) surface marker CD9, was added. Then, the resulting solution was gently stirred at 25° C. for one hour for incubation. After the reaction, the magnetic particles were magnetically collected and washed with a washing solution (50 mM Tris buffer, 150 mM NaCl2, 2.0% BSA, pH 7.2) in order to obtain anti-CD9 antibody solid-phased particles. Each antibody solid-phased particle was suspended in a particle diluent (50 mM Tris buffer, 1 mM EDTA-2Na, 0.1% NaN3, 2.0% BSA, pH 7.2) in order to obtain each antibody solid-phased particle solution.
(§2) Desalted alkaline phosphatase (ALP) was mixed with N-(4-maleimidobutyryloxy)-succinimide (GMBS) (final concentration 0.3 mg/mL) and the resulting solution was allowed to stand at 30° C. for one hour for maleimidation of ALP. Next, in a coupling reactant solution (100 mM phosphate buffer, 1 mM EDTA-2Na, pH 6.3), Fab's of mouse anti-CD9 monoclonal antibody was mixed with maleimidized ALP at a molar ratio of 1: 1, and reacted at 25° C. for one hour. The reactant solution was subjected to purification using Superdex 200 column chromatography (General Electric Company) to obtain ALP-labeled anti-CD9 antibody. Each ALP-labeled antibody was suspended in a labeled antibody diluent (50 mM MES buffer, 150 mM NaCl2, 0.3 mM ZnCl2, 1 mM MgCl2, 0.1% NaN3, 2.0% BSA, pH 6.8) to obtain each labeled antibody solution.
(§3) 20 μL of the sample for measurement and 50 μL of the anti-CD9 antibody solid-phased particle solution were dispensed into the reaction vessel and stirred. Then, the resulting solution was incubated at 37° C. for 8 minutes (primary reaction), and B/F separation and washing were carried out. 50 μL of the ALP-labeled antibody was dispensed into the reaction vessel, the resulting solution was stirred and then incubated at 37° C. for 8 minutes, and B/F separation and washing were carried out. Then, 200 μL of Lumipulse (registered trademark) substrate solution (Fujirebio Inc.) containing 3-(2′-spiroadamantane)-4-methoxy-4-(3″-phosphoryloxy)phenyl-1,2-dioxetane disodium salt (AMPPD) serving as a chemiluminescent substance was dispensed into the reaction chamber. The resulting solution was stirred and then incubated at 37° C. for 4 minutes for the measurement of luminescence intensity using luminometer. A count value was obtained as the measured value. The luminescence intensity was measured using a fully automated chemiluminescent enzyme immunoassay system (Lumipulse L2400 (Fujirebio Inc.)).
Antibodies recognizing the same epitope in CD9 were used as the antibody solid-phased on the magnetic particle and the ALP-labeled antibody. Due to the presence of a plurality of CD9 on a single extracellular vesicle, it is possible to measure for the extracellular vesicle presenting a plurality of CD9 to be indicated as the surface marker rather than free CD9 by means of the sandwich immunoassay in which the antibodies recognizing the same epitope as the solid-phased antibodies were used as the ALP-labeled antibodies.
Various concentrations of the chelating agent and the surfactant were added to human whole blood, for the measurement of CD9 in the supernatant obtained after centrifugation. […]

Series [5] shares this test system. In words: Study of action of chelating agent and surfactant on whole blood or on immune reaction (CD9, Example 5). Also on record: species or system human. The following applies: for vs. no EGTA (%): 100 mM EGTA in particle solution vs none. Here is the method: as §1, §2
as §3, with “Inc.)). […]” for “Inc.)).”
In addition, CD9 was measured also for a solution obtained by adding 100 mM EGTA to the CD9 antibody solid-phased particle solution. […]

The test system is the same in series [6]. In words: Study of surfactant type in combination with EGTA (CD9 in supernatant, Example 6). The arrangement: species or system human. The following applies: EGTA 200 mM, no surfactant (D-PBS(-)). As to the method: as §1, with “solution. […]” for “solution.”
20 μL of the sample for measurement and 50 μL of the anti-CD9 antibody solid-phased particle solution were dispensed into the reaction vessel and stirred. […] The resulting solution was stirred and then incubated at 37° C. for 4 minutes for the measurement of luminescence intensity using luminometer. A count value was obtained as the measured value. The luminescence intensity was measured using a fully automated chemiluminescent enzyme immunoassay system (Lumipulse L2400 (Fujirebio Inc.)). […]

[7] abbreviates: surfactant final 0.5 W/V % in whole blood, visual check of supernatant.

Structures are written as SMILES. Like-named read-outs stand apart in the source and are kept apart here.

Take `CCCCCCCCCCCC[N+](C)(C)CCCS(=O)(=O)[O-]` [C12APS, N-dodecyl-N,N-dimethyl-3-ammonio-l-propanesulfonate]: in series [1] (setting [7]), the “Hemolysis, Specimen 1” value is on record as “Hemolysis” and the “Hemolysis, Specimen 2” value is listed as “Hemolysis”.

In the case of `CCCCCCCCCCCCCCCC[N+](C)(C)C.[Cl-]` [C16TAC, hexadecyltrimethylammonium chloride], in series [1] (setting [7]), the “Hemolysis, Specimen 1” value was “Hemolysis” and the “Hemolysis, Specimen 2” value is given as “Hemolysis”.

Take `C[C@H](CCC(=O)NCCC[N+](C)(C)CCCS(=O)(=O)[O-])[C@H]1CC[C@H]2[C@@H]3[C@H](O)C[C@@H]4C[C@H](O)CC[C@]4(C)[C@H]3C[C@H](O)[C@]12C` [CHAPS]: in series [1] (setting [7]), the “Hemolysis, Specimen 1” value is reported as “Hemolysis” and the “Hemolysis, Specimen 2” value is “Hemolysis”.

As for `O=C(O)CN(CCN(CC(=O)O)CC(=O)O)CC(=O)O.[Na].[Na]` [EDTA2Na, disodium ethylenediaminetetraacetic acid], the “vs. non-addition (%)” value in series [2] is on record as 376.6%. Further, in series [3], the “vs. No chelating agent and surfactant added (%)” value worked out at 196.6%.

For `O=C(O)CN(CCOCCOCCN(CC(=O)O)CC(=O)O)CC(=O)O` [EGTA, glycol ether diamine tetraacetic acid], the “vs. non-addition (%)” value is listed as 215% in series [2]; 843.5% in series [5] (blood collection vessel: 200 mM EGTA, 0% Tergitol, particle solution: 100 mM EGTA + 0.5% Tergitol); 530.5% in series [5] (blood collection vessel: 200 mM EGTA, 0% Tergitol, particle solution: 0.5% Tergitol). Further, the “vs. No chelating agent and surfactant added (%)” value in series [3] is recorded as 332.6%. The “CD9 vs. 0 mM EGTA (%)” value was 154% in series [4] (EGTA 10 mM), 294% in series [4] (EGTA 50 mM), 532% in series [4] (EGTA 100 mM) and 721% in series [4] (EGTA 200 mM). Besides, in series [4] (EGTA 50 mM), the “CD9 vs. 0% Tergitol (%)” value worked out at 294%. Moreover, the “vs. no EGTA (%)” value came out at 112.9% in series [5] (blood collection vessel: 200 mM EGTA, 0% Tergitol) and 71% in series [5] (blood collection vessel: nothing added). In addition, the vs. non-addition in series [6] was determined as 366.4.

`O=C(O)CN(CCO)CCN(CC(=O)O)CC(=O)O` [HEDTA, hydroxyethyl ethylenediaminetriacetic acid]: the “vs. non-addition (%)” value in series [2] is 963.9%.

Consider `CCCCCCCCCC(=O)N(C)CC(=O)O.[Na]` [N-DSS (NDS), N-decanoyl sarcosine sodium], for which, in series [1], the “Hemolysis, Specimen 1” value is reported as “Hemolysis” and the “Hemolysis, Specimen 2” value is on record as “Hemolysis”.

For the compound `CCCCCCCCCCCC(=O)N(C)CC(=O)O.O.[Na]` [NLS, N-lauroyl sarcosine sodium hydrate], in series [1], the “Hemolysis, Specimen 1” value is reported as “Hemolysis” and the “Hemolysis, Specimen 2” value is listed as “Hemolysis”.

Take `O=C(O)CN(CC(=O)O)CC(=O)O` [NTA, nitrilotriacetic acid]: the “vs. non-addition (%)” value in series [2] came to 427.7%.
